Results: patent US7115617B2, “Amino-substituted pyrimidinyl derivatives and methods of use” (Amgen Inc., priority 2001, dated 2006)
pIC50: −log10 of the molar value.

System: 3T3 proliferation
Assay: IGF-1-induced DNA synthesis (3H-thymidine incorporation)
Type: cell-based
Settings: Rattus norvegicus; activated overnight with 50 ng/mL IGF-1; read-out: inhibited 3T3 proliferation (IC50, thymidine incorporation)
Description: Human tumor cell lines or a rat fibroblast cell line are plated out in flat-well plates in complete medium and allowed to adhere overnight. The cells are then starved in medium containing 0.1% bovine serum albumin (BSA) overnight, pre-incubated for 1 h with or without dilutions of compound, then activated overnight with 50 ng/mL insulin-like growth factor (IGF-1). Proliferation is determined by the level of ^3H-thymidine incorporation into DNA. IC50's are determined by comparing the level of thymidine incorporation found in the presence of compound compared to controls.

Structure (SMILES) | pIC50
COc1cc(Nc2nccc(Nc3cc(-c4ccccc4)on3)n2)cc(OC)c1OC [Example 15, N^2-(3,4,5-Trimethoxyphenyl)-N^4-(5-phenylisoxazol-3-yl)-2,4-pyrimidinediamine] | > 6.82
COc1cc(C)c(Nc2nccc(Nc3cc(C45CC6CC(CC(C6)C4)C5)on3)n2)cc1OC [Example 18, N^2-(4,5-Dimethoxy-2-methylphenyl)-N^4-(5-adamantylisoxazol-3-yl)-2,4-pyrimidinediamine] | > 6.82
COc1cc(Nc2nccc(Nc3cc(C4CCCCC4)no3)n2)cc(OC)c1OC [Example 17, N^2-(3,4,5-Trimethoxyphenyl)-N^4-(3-cyclohexylisoxazol-5-yl)-2,4-pyrimidinediamine] | > 6.82
COc1cc(Nc2nccc(Nc3cc(-c4ccccc4)on3)n2)ccc1N1CCOCC1 [Example 14, N^2-(3-Methoxy-4-morpholin-4-yl-phenyl)-N^4-(5-phenyl-isoxazol-3-yl)-pyrimidine-2,4-diamine] | > 6.82
